# Where two headings read alike, the source gives them in different places.
# Experiments:
# [1] = levels in cerebro-spinal fluid of rats; assay type: in vivo; conditions: 20 mg/kg s.c.
# [2] = system: Staphylococcus aureus; experiment: in vitro antibacterial activity, agar dilution; assay type: cell-based
# Description: (§1) The bis-tetrazol-thiomethyl substituted cephalosporins of this invention are broad spectrum antibiotics which inhibit the growth of both gram positive and gram negative microorganisms which are pathogenic to man and animals. […] The following Table 2 lists the minimum inhibitory concentrations of representative compounds of the invention.
# (§2) The data in TABLE 2 were obtained in the agar dilution test method using Mueller-Hinton agar containing two percent Supplement C (Difco). Serial two-fold dilutions were run with the highest concentration on test at 128 mcg/ml.
# [3] = system: Escherichia coli; experiment: in vitro antibacterial activity, agar dilution; assay type: cell-based
# Description: as §1, §2
# [4] = system: Salmonella sp.; experiment: in vitro antibacterial activity, agar dilution; assay type: cell-based
# Description: as §1, §2
# [5] = system: Proteus inconstans; experiment: in vitro antibacterial activity, agar dilution; assay type: cell-based; conditions: Providencia alcalifaciens, read-out: Minimum Inhibitory Concentration
# Description: as §1, §2
# [6] = system: Serratia marcescens; experiment: in vitro antibacterial activity, agar dilution; assay type: cell-based
# Description: as §1, §2
# [7] = system: Bordetella bronchoseptica; experiment: in vitro antibacterial activity, agar dilution; assay type: cell-based; conditions: strain 16, read-out: Minimum Inhibitory Concentration
# Description: as §1, §2
# [8] = system: Klebsiella sp.; experiment: in vitro antibacterial activity, agar dilution; assay type: cell-based
# Description: as §1, §2
# [9] = system: Staphylococcus epidermidis; experiment: in vitro antibacterial activity, agar dilution; assay type: cell-based
# Description: as §1, §2
# [10] = system: Pseudomonas aeruginosa; experiment: in vitro antibacterial activity, agar dilution; assay type: cell-based
# Description: as §1, §2
# [11] = system: Haemophilus influenzae; experiment: in vitro antibacterial activity, agar dilution; assay type: cell-based
# Description: as §1, §2
# [12] = system: Streptococcus Group A; experiment: in vitro antibacterial activity, agar dilution; assay type: cell-based; conditions: strain C203; read-out: Minimum Inhibitory Concentration
# Description: as §1, §2
# [13] = system: Proteus morganii; experiment: in vitro antibacterial activity, agar dilution; assay type: cell-based; conditions: Morganella morganii; strain PR15; read-out: Minimum Inhibitory Concentration
# Description: as §1, §2
# [14] = system: Citrobacter freundii; experiment: in vitro antibacterial activity, agar dilution; assay type: cell-based; conditions: strain CF17, read-out: Minimum Inhibitory Concentration
# Description: as §1, §2
# [15] = system: Shigella sonnei; experiment: in vitro antibacterial activity, agar dilution; assay type: cell-based; conditions: strain N9, read-out: Minimum Inhibitory Concentration
# Description: as §1, §2
# [16] = system: Proteus rettgeri; experiment: in vitro antibacterial activity, agar dilution; assay type: cell-based
# Description: as §1, §2
# [17] = system: Enterobacter cloacae; experiment: in vitro antibacterial activity, agar dilution; assay type: cell-based
# Description: as §1, §2
# [18] = system: Streptococcus Group D; experiment: in vitro antibacterial activity, agar dilution; assay type: cell-based; conditions: read-out: Minimum Inhibitory Concentration
# Description: as §1, §2
# [19] = system: Enterobacter aerogenes; experiment: in vitro antibacterial activity, agar dilution; assay type: cell-based; conditions: Klebsiella aerogenes, read-out: Minimum Inhibitory Concentration
# Description: as §1, §2
# [20] = system: Streptococcus pneumoniae; experiment: in vitro antibacterial activity, agar dilution; assay type: cell-based; conditions: strain PARK, read-out: Minimum Inhibitory Concentration
# Description: as §1, §2
# [21] = system: ampicillin-resistant Haemophilus influenzae; experiment: treatment of ampicillin-resistant Haemophilus influenzae meningitis in infant rats; assay type: in vivo
# [22] = system: Serratia marcescens (SE3); experiment: in vivo activity in infected mice; conditions: sc, doses at 1 and 5 hours post infection
# Procedure: (§3) Compound E (TABLE 2), a preferred compound of the invention, was administered to mice infected with various pathogens to determine the compound's effective dose (ED50). Listed below in TABLE 3 are the ED50 values determined with the indicated infectious organism. | ^1 Subcutaneous doses at 1 and 5 hours post infection
# [23] = system: Proteus vulgaris (PV2S); experiment: in vivo activity in infected mice; conditions: sc, doses at 1 and 5 hours post infection
# Procedure: as §3
# [24] = system: Staphylococcus aureus (3055); experiment: in vivo activity in infected mice; conditions: sc, doses at 1 and 5 hours post infection
# Procedure: as §3
# [25] = system: Escherichia coli (EC14); experiment: in vivo activity in infected mice; conditions: sc, doses at 1 and 5 hours post infection
# Procedure: as §3
# [26] = system: Streptococcus pyogenes (C203); experiment: in vivo activity in infected mice; conditions: sc, doses at 1 and 5 hours post infection
# Procedure: as §3
# [27] = read-out: Minimum Inhibitory Concentration
structure (smiles),measurement,setting,value
"CO/N=C(\C(=O)N[C@@H]1C(=O)N2C(C(=O)O)=C(CSc3nnnn3Cc3nnn[nH]3)CS[C@H]12)c1csc(N)n1 [Compound E, syn 7β-[α-methoximino-α-(2-amino-1,3-thiazol-4-yl)-acetamido]-3-[1-(1H-tetrazol-5-ylmethyl)-1H-tetrazol-5-ylthiomethyl]-3-cephem-4-carboxylic acid]",levels in the cerebro-spinal fluid,[1],present in effective levels
same,MIC,[2]; [27],16 µg/mL
same,MIC,"[2]; strain V41, read-out: Minimum Inhibitory Concentration",8 µg/mL
same,MIC,"[2]; strain X1.1, read-out: Minimum Inhibitory Concentration",4 µg/mL
same,MIC,"[2]; strain X400, read-out: Minimum Inhibitory Concentration",> 128 µg/mL
same,MIC,[3]; [27],0.125 µg/mL
same,MIC,"[3]; strain EC14, read-out: Minimum Inhibitory Concentration",0.06 µg/mL
same,MIC,"[3]; strain N10, read-out: Minimum Inhibitory Concentration",0.25 µg/mL
same,MIC,"[4]; strain 1335, read-out: Minimum Inhibitory Concentration",0.25 µg/mL
same,MIC,"[4]; strain X514, read-out: Minimum Inhibitory Concentration",0.125 µg/mL
same,MIC,[5],0.125 µg/mL
same,MIC,"[6]; strain SE3, read-out: Minimum Inhibitory Concentration",1 µg/mL
same,MIC,"[6]; strain X93, read-out: Minimum Inhibitory Concentration",0.25 µg/mL
same,MIC,[7],32 µg/mL
same,MIC,"[8]; strain KAE, read-out: Minimum Inhibitory Concentration",16 µg/mL
same,MIC,"[8]; strain X26, read-out: Minimum Inhibitory Concentration",0.06 µg/mL
same,MIC,"[9]; strain EPI1, read-out: Minimum Inhibitory Concentration",16 µg/mL
same,MIC,"[9]; strain EPI2, read-out: Minimum Inhibitory Concentration",64 µg/mL
same,MIC,"[10]; strain Ps18, read-out: Minimum Inhibitory Concentration",8 µg/mL
same,MIC,"[10]; strain X239, read-out: Minimum Inhibitory Concentration",16 µg/mL
same,MIC,"[10]; strain X528, read-out: Minimum Inhibitory Concentration",8 µg/mL
same,MIC,"[11]; Haemophilus influenzae, read-out: Minimum Inhibitory Concentration",0.125 µg/mL
same,Minimum Inhibitory Concentration,"[11]; strain 251, resistant strain",.125 µg/mL
same,MIC,[12],0.06 µg/mL
same,MIC,[13],0.06 µg/mL
same,MIC,[14],32 µg/mL
same,MIC,[15],0.125 µg/mL
same,MIC,"[16]; Providencia rettgeri, read-out: Minimum Inhibitory Concentration",0.125 µg/mL
same,Minimum Inhibitory Concentration,[16]; strain C24,.125 µg/mL
same,MIC,"[17]; strain 265A, read-out: Minimum Inhibitory Concentration",64 µg/mL
same,MIC,"[17]; strain EB5, read-out: Minimum Inhibitory Concentration",2 µg/mL
same,MIC,[18]; strain 9960,16 µg/mL
same,MIC,[18]; strain X66,> 128 µg/mL
same,MIC,[19]; strain C32,0.25 µg/mL
same,MIC,[19]; strain EB17,0.25 µg/mL
same,MIC,[19]; strain X68,0.06 µg/mL
same,MIC,[20],0.03 µg/mL
same,effectiveness in treatment of meningitis,[21],effective in the treatment
same,ED50,[22],1 mg/kg
same,ED50,[23],0.12 mg/kg
same,ED50,[24],7.6 mg/kg
same,ED50,[25],0.16 mg/kg
same,ED50,[26],0.21 mg/kg
